# Patent US9695128B2, “Ethynyl derivatives” (Hoffmann-La Roche Inc., priority 2014, dated 2017)
# How the values were obtained:
# [1] = biological target: recombinant human mGlu4 expressed in HEK293 cells (Homo sapiens (Human), UniProt Q14833); test: Ca2+ mobilization in vitro assay, mGlu4 PAM (with EC20 of L-AP4); type: cell-based; conditions: for Emax: HEK293, maximal response in % of the maximal stimulatory effect obtained with saturating concentrations of L-AP4, read-out: Eff. (%); for EC50: human mGlu4 in HEK293 cells, Ca2+ mobilization, L-AP4 at EC20, read-out: EC50 (nM) mGlu4PAM
# Chain of recombinant human mGlu4 expressed in HEK293 cells (Q14833 33-912): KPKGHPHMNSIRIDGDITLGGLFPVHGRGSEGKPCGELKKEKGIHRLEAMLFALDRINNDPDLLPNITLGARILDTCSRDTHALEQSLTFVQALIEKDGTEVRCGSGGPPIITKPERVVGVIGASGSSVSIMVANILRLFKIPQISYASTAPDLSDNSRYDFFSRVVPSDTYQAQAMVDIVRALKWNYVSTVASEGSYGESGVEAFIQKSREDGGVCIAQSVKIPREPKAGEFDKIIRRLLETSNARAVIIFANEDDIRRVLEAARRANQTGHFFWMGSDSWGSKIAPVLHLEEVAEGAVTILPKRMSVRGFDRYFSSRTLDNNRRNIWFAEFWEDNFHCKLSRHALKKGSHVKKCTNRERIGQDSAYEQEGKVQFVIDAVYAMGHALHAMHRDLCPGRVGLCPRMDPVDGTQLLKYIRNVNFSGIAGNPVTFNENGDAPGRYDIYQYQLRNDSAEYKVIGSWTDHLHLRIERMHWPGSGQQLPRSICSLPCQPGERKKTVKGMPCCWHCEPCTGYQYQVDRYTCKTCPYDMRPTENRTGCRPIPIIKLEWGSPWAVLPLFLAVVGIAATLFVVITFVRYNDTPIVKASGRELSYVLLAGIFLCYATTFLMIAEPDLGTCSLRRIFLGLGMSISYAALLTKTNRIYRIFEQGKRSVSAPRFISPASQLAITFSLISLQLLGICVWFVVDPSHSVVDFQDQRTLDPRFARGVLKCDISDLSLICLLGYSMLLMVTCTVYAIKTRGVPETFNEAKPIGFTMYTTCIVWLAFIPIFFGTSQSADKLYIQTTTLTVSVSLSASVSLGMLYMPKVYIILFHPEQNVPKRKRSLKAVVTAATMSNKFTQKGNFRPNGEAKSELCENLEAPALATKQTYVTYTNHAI
# Method: Determination of EC50 Values Using a Ca2+ Mobilization in vitro Assay on Recombinant Human mGlu4 Expressed in HEK293 Cells:
# A monoclonal HEK-293 cell line stably transfected with a cDNA encoding for the human mGlu4 receptor was generated; for the work with mGlu4 Positive Allosteric Modulators (PAMs), a cell line with low receptor expression levels and low constitutive receptor activity was selected to allow the differentiation of agonistic versus PAM activity. Cells were cultured according to standard protocols (Freshney, 2000) in Dulbecco's Modified Eagle Medium with high glucose supplemented with 1 mM glutamine, 10% (vol/vol) heat-inactivated bovine calf serum, Penicillin/Streptomycin, 50 μg/ml hygromycin and 15 μg/ml blasticidin (all cell culture reagents and antibiotics from Invitrogen, Basel, Switzerland). • About 24 hrs before an experiment, 5×10^4 cells/well were seeded in poly-D-lysine coated, black/clear-bottomed 96-well plates. The cells were loaded with 2.5 μM Fluo-4AM in loading buffer (1×HBSS, 20 mM HEPES) for 1 hr at 37° C. and washed five times with loading buffer. The cells were transferred into a Functional Drug Screening System 7000 (Hamamatsu, Paris, France), and 11 half logarithmic serial dilutions of test compound at 37° C. were added and the cells were incubated for 10-30 min. with on-line recording of fluorescence. Following this pre-incubation step, the agonist (2S)-2-amino-4-phosphonobutanoic acid (L-AP4) was added to the cells at a concentration corresponding to EC20 with on-line recording of fluorescence; in order to account for day-to-day variations in the responsiveness of cells, the EC20 of L-AP4 was determined immediately ahead of each experiment by recording of a full dose-response curve of L-AP4.
# Responses were measured as peak increase in fluorescence minus basal (i.e. fluorescence without addition of L-AP4), normalized to the maximal stimulatory effect obtained with saturating concentrations of L-AP4. Graphs were plotted with the % maximal stimulatory using XLfit, a curve fitting program that iteratively plots the data using Levenburg Marquardt algorithm. The single site competition analysis equation used was y=A+((B−A)/(1+((x/C)D))), where y is the % maximal stimulatory effect, A is the minimum y, B is the maximum y, C is the EC50, x is the log 10 of the concentration of the competing compound and D is the slope of the curve (the Hill Coefficient). From these curves the EC50 (drug concentration at which 50% of the maximal receptor activation was achieved), the Hill coefficient as well as the maximal response in % of the maximal stimulatory effect obtained with saturating concentrations of L-AP4 were calculated (see FIG. 1).
# A depression of the signal observed after addition of the EC20 concentration of L-AP4 was indicative of an inhibitory activity of the test compound.
# [2] = tested on: 6-OHDA rodent model of PD; conditions: cited from earlier work
# [3] = tested on: marble burying test in mice; conditions: reported by Addex 2010; cited from earlier work
# EPM in mice = conditions: reported by Addex 2010; cited from earlier work
# EPM in rats = conditions: cited from earlier work
# mice treated with MPTP = conditions: cited from earlier work
SMILES,Emax [1] [%],EC50 [1] [nM],also measured
"CC1CCCC2C(=O)N(c3ccc(C#Cc4ccccc4)cc3Cl)C(=O)N12 (racemic) [Example 10, (5RS,8aRS)-2-[2-Chloro-4-(2-phenylethynyl)phenyl]-5-methyl-6,7,8,8a-tetrahydro-5H-imidazo[1,5-a]pyridine-1,3-dione]",232,256,
"CC(C)N1CC(=O)N(c2c(F)cc(C#Cc3ccccc3)cc2F)C1=O [Example 1, 3-[2,6-Difluoro-4-(2-phenylethynyl)phenyl]-1-isopropyl-imidazolidine-2,4-dione]",154,441,
"CC1(C)C(=O)N(c2c(F)cc(C#Cc3ccccc3)cc2F)C(=O)N1c1ccccc1 [Example 7, 3-[2,6-Difluoro-4-(2-phenylethynyl)phenyl]-5,5-dimethyl-1-phenyl-imidazolidine-2,4-dione]",222,242,
"N[C@@H](CCP(=O)(O)O)C(=O)O [L-AP4, (2S)-2-amino-4-phosphonobutanoic acid]",,,neuroprotective effects [2]: demonstrated neuroprotective effects
Cc1ccnc(Nc2nc(-c3cn[nH]c3)c(C)s2)n1 [ADX88178],,,"activity in marble burying test [3]: active; activity in EPM (EPM in mice): active; profile in rat EPM test (EPM in rats; rat, after oral dosing): anxiolytic-like profile; activity in EPM (EPM in rats; rats, reported by Addex 2010): active"
"O=C1C2CCc3ccccc3N2C(=O)N1c1c(F)cc(C#Cc2ccccc2)cc1F (racemic) [Example 6, (3aRS)-2-[2,6-Difluoro-4-(2-phenylethynyl)phenyl]-4,5-dihydro-3aH-imidazo[1,5-a]quinoline-1,3-dione]",110,74,
"CC1CCCC2C(=O)N(c3c(F)cc(C#Cc4cccnc4)cc3Cl)C(=O)N12 (racemic) [Example 11, (5RS,8aRS)-2-[2-Chloro-6-fluoro-4-[2-(3-pyridyl)ethynyl]phenyl]-5-methyl-6,7,8,8a-tetrahydro-5H-imidazo[1,5-a]pyridine-1,3-dione]",140,180,
"CC(C)N1C(=O)N(c2c(F)cc(C#Cc3ccccc3)cc2F)C(=O)C12COC2 [Example 13, 7-[2,6-Difluoro-4-(2-phenylethynyl)phenyl]-5-isopropyl-2-oxa-5,7-diazaspiro[3.4]octane-6,8-dione]",100,230,
"CC(C)N1C(=O)N(c2c(F)cc(C#Cc3ccccc3)cc2F)C(=O)C1(C)C [Example 3, 3-[2,6-Difluoro-4-(2-phenylethynyl)phenyl]-1-isopropyl-5,5-dimethyl-imidazolidine-2,4-dione]",98,286,
"O=C(Nc1ccccc1)C12CC1/C(=N\O)c1ccccc1O2 (single isomer, unassigned; (-)) [(−)-PHCCC]",,,nigrostriatal degeneration (mice treated with MPTP): reduced nigrostriatal degeneration
"CC(C)N1C(=O)N(c2c(F)cc(C#Cc3ccccc3)cc2F)C(=O)C1C (racemic) [Example 2, (5RS)-3-[2,6-Difluoro-4-(2-phenylethynyl)phenyl]-1-isopropyl-5-methyl-imidazolidine-2,4-dione]",107,104,
"O=C1C2Cc3ccccc3CN2C(=O)N1c1c(F)cc(C#Cc2ccccc2)cc1F (racemic) [Example 9, (10aRS)-2-[2,6-Difluoro-4-(2-phenylethynyl)phenyl]-10,10a-dihydro-5H-imidazo[1,5-b]isoquinoline-1,3-dione]",99,56,
"CC1COCC2C(=O)N(c3c(F)cc(C#Cc4ccccc4)cc3F)C(=O)N12 (racemic) [Example 4, (5RS,8aRS)-2-[2,6-Difluoro-4-(2-phenylethynyl)phenyl]-5-methyl-5,6,8,8a-tetrahydroimidazo[5,1-c][1,4]oxazine-1,3-dione]",188,204,
"O=C1CN(C2CC2)C(=O)N1c1c(F)cc(C#Cc2ccccc2)cc1F [Example 12, 1-Cyclopropyl-3-[2,6-difluoro-4-(2-phenylethynyl)phenyl]imidazolidine-2,4-dione]",113,370,
"O=C1C2Cc3ccccc3N2C(=O)N1c1c(F)cc(C#Cc2ccccc2)cc1F (racemic) [Example 5, (3aRS)-2-[2,6-Difluoro-4-(2-phenylethynyl)phenyl]-3a,4-dihydroimidazo[1,5-a]indole-1,3-dione]",103,188,
"CC(C)(C)N1CC(=O)N(c2c(F)cc(C#Cc3ccccc3)cc2F)C1=O [Example 8, 1-tert-Butyl-3-[2,6-difluoro-4-(2-phenylethynyl)phenyl]imidazolidine-2,4-dione]",143,222,
